This is an account of results in PubChem BioAssay (NCI).

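Where inhibition never reached the appropriate level, the endpoint shown equals the highest concentration tested. Otherwise, values were interpolated linearly from a five-concentration, 48-hour dose response in 96-well plates. The concentration for full growth arrest is given as TGI.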

Among the test systems are NCI-H23 lung; MOLT-4 leukemia; OVCAR-8 ovarian; KM12 colon; K-562 leukemia; UO-31 renal; NCI-H522 lung; TK-10 renal; MCF7 breast; UACC-257 melanoma; BT-549 breast; IGROV1 ovarian; NCI-H460 lung; HL-60(TB) leukemia.
What all share (test): inhibition of tumour cell growth, NCI panel, 48 h

As for `Cc1nc(Cc2n[nH]c(C)n2)n[nH]1`, the TGI with NCI-H23 lung, with MOLT-4 leukemia, in the assay on OVCAR-8 ovarian, in the assay with KM12 colon, in the assay on K-562 leukemia and in the assay on UO-31 renal was greater than 100 µM throughout. The TGI in the assay on NCI-H522 lung, in the assay on TK-10 renal, with MCF7 breast, with UACC-257 melanoma, in the assay with BT-549 breast and in the assay on IGROV1 ovarian was greater than 100 µM throughout.
As to `CC(C)=CC(=O)c1c(C(=O)O)nc2ccccc2[n+]1[O-]`, the TGI in the assay on NCI-H23 lung, with MOLT-4 leukemia, in the assay on NCI-H460 lung, in the assay with KM12 colon, in the assay on K-562 leukemia and with UO-31 renal was greater than 100 µM each time. Moreover, the TGI with TK-10 renal, in the assay on HL-60(TB) leukemia, with UACC-257 melanoma and with IGROV1 ovarian was greater than 100 µM in each case.
Take `C(=C\c1c2oc(-c3ccccc3)cc(-c3ccccc3)c-2c2ccccc12)/C=C1\c2ccccc2-c2c(-c3ccccc3)cc(-c3ccccc3)[o+]c21`: the TGI in the assay on NCI-H23 lung, with MOLT-4 leukemia, with OVCAR-8 ovarian, in the assay on NCI-H460 lung, in the assay with K-562 leukemia and in the assay with UO-31 renal was greater than 100 µM in each case. For the same compound, the TGI with NCI-H522 lung, in the assay on TK-10 renal, in the assay on HL-60(TB) leukemia, in the assay with UACC-257 melanoma and in the assay on IGROV1 ovarian was greater than 100 µM each time.
For `O=C(c1ccccc1)c1cc(Cl)ccc1NCn1nnc2ccccc21`, the TGI with NCI-H23 lung, in the assay with MOLT-4 leukemia, in the assay with OVCAR-8 ovarian, with NCI-H460 lung, in the assay on KM12 colon and with K-562 leukemia was greater than 100 µM in each case. The TGI in the assay on UO-31 renal is greater than 100 µM; with NCI-H522 lung, greater than 100 µM; in the assay with TK-10 renal it was greater than 100 µM; in the assay on HL-60(TB) leukemia, 88.8 µM; in the assay with UACC-257 melanoma, greater than 100 µM; in the assay with IGROV1 ovarian, greater than 100 µM.
Take `CCOC(=O)c1c(-c2ccccc2)c(C)cn1C`: the TGI in the assay on NCI-H23 lung, in the assay with MOLT-4 leukemia, with OVCAR-8 ovarian, with NCI-H460 lung, in the assay on KM12 colon and in the assay with K-562 leukemia was greater than 10 µM throughout. Further, the TGI in the assay with UO-31 renal, with NCI-H522 lung, with TK-10 renal, in the assay with UACC-257 melanoma, in the assay on BT-549 breast and in the assay on IGROV1 ovarian was greater than 10 µM throughout.
Take `CC(C)[C@@H]1NC(=O)[C@@H]2N=C(O[C@H]2C)[C@H](C(C)C)NC(=O)C2N=C1O[C@H]2C`: the TGI in the assay with NCI-H23 lung, in the assay on MOLT-4 leukemia, in the assay with OVCAR-8 ovarian, in the assay on NCI-H460 lung, with KM12 colon and with K-562 leukemia was greater than 100 µM in each case. Further, the TGI in the assay on UO-31 renal, in the assay on NCI-H522 lung, in the assay with TK-10 renal, in the assay on MCF7 breast, in the assay with HL-60(TB) leukemia and with UACC-257 melanoma was greater than 100 µM throughout. The compound also yielded a TGI in the assay with IGROV1 ovarian greater than 100 µM.
With `Cn1c(=O)c2c(nc(N/N=C3/SCC(=O)N3Cc3ccccc3)n2C)n(C)c1=O`, the TGI in the assay on NCI-H23 lung, with OVCAR-8 ovarian, with NCI-H460 lung, with KM12 colon, in the assay on K-562 leukemia and with UO-31 renal was greater than 100 µM throughout. Moreover, the TGI with NCI-H522 lung, with TK-10 renal, in the assay on MCF7 breast, in the assay with UACC-257 melanoma, with BT-549 breast and with IGROV1 ovarian was greater than 100 µM each time.
Turning to `c1cc2c(cc1[C@@H]1OC[C@@H]3[C@H]1CO[C@H]3c1ccc3c(c1)OCO3)OCO2`, the TGI is greater than 100 µM in the assay with NCI-H23 lung; greater than 100 µM with MOLT-4 leukemia; greater than 100 µM with OVCAR-8 ovarian; greater than 100 µM in the assay on NCI-H460 lung; 71 µM in the assay with KM12 colon; greater than 100 µM in the assay on K-562 leukemia. Moreover, the TGI in the assay on UO-31 renal is greater than 100 µM; in the assay on NCI-H522 lung, greater than 100 µM; in the assay with TK-10 renal, 93.8 µM; in the assay with MCF7 breast it was greater than 100 µM; in the assay on HL-60(TB) leukemia, greater than 100 µM; in the assay with UACC-257 melanoma, 80.7 µM. For the same compound, the TGI in the assay with IGROV1 ovarian was greater than 100 µM.
Turning to `CCc1cc2c(c3c1CCCC3=O)CC1(C2)Cc2cc(CC)c3c(c2C1)C(=O)CCC3`, the TGI with NCI-H23 lung, with MOLT-4 leukemia, with OVCAR-8 ovarian, in the assay on NCI-H460 lung, in the assay with KM12 colon and with K-562 leukemia was greater than 100 µM in each case. For the same compound, the TGI in the assay with UO-31 renal, in the assay with NCI-H522 lung, in the assay on TK-10 renal, with MCF7 breast, in the assay with HL-60(TB) leukemia and in the assay with UACC-257 melanoma was greater than 100 µM throughout. Moreover, the TGI in the assay on IGROV1 ovarian is greater than 100 µM.
Take `CCCCCCCCCCCCC1N=C(N)N2CCCC2=C1C(=O)OC` (stereo not drawn): the TGI in the assay on NCI-H23 lung was 6.17 µM; in the assay with MOLT-4 leukemia it was 4.22 µM; in the assay on OVCAR-8 ovarian, 3.37 µM; in the assay on NCI-H460 lung it was 3.23 µM; in the assay on KM12 colon, 3.94 µM; with K-562 leukemia, 2.91 µM. The TGI with UO-31 renal is 24.4 µM; in the assay on NCI-H522 lung it was 3.26 µM; in the assay with TK-10 renal, greater than 48.7 µM; in the assay on UACC-257 melanoma it was 3.73 µM; with BT-549 breast it was 35 µM; in the assay on IGROV1 ovarian, 7.94 µM.
On to `CN(/N=C\c1ccc2ccccc2c1)C1=NCCCN1`, for which the TGI was greater than 100 µM in the assay with NCI-H23 lung; 8.93 µM in the assay on MOLT-4 leukemia; greater than 100 µM in the assay with OVCAR-8 ovarian; 20.3 µM in the assay with NCI-H460 lung; 32.1 µM with KM12 colon; 34.2 µM in the assay with K-562 leukemia. Moreover, the TGI in the assay on UO-31 renal is 25.2 µM; in the assay with NCI-H522 lung it was 30.3 µM; in the assay on TK-10 renal, 34.2 µM; in the assay on MCF7 breast, 26.4 µM; in the assay with HL-60(TB) leukemia, 37.4 µM; with UACC-257 melanoma, 23.6 µM. The TGI in the assay on IGROV1 ovarian came to 23.3 µM.
